Assay results published in patent publication US9573907B2, “2, 4-pyrimidine derivatives and use thereof” (SNU R&DB FOUNDATION, priority 2009, dated 2017).
“Also recorded” adds a separate entry of the source.

Key:
[1] = target: T1, interaction of gp96 with KDELR1 (Mus musculus, UniProt P08113); assay: Co-immunoprecipitation of gp96 with KDELR1 in RAW24.7 cells; assay type: cell-based; conditions: 10 μM, 24 h
T1 construct: endogenous in cells; host or cells: RAW24.7 (RAW264.7) cells
Protocol: FIGS. 1 to 9 represent suppression of cell surface gp96 by GPM1 reduces DC maturation and B220^+ population in gp96tm transgenic mice. (FIG. 1) Chemical structure of GPM1 (Formula 2) and negative control (NC1, Formula 16) used in this study. (FIG. 2) The dose-dependent effect of GPM1 or NC1 on the AIMP1-gp96 interaction using ELISA method as described. The indicated concentrations of the two compounds and biotin-conjugated murine gp96 were added to AIMP1 coated on the surface of microtiter wells, and gp96 bound to AIMP1 was detected with strepavidin-conjugated peroxidase. (FIG. 3) The binding of GPM1 to gp96 was examined by surface plasmon resonance (SPR). GPM1 at the indicated concentrations was injected to immobilized gp96 and the binding was measured using Biacore 3000. The response data were processed using data from a reference surface and buffer injections. Each concentration was tested in triplicate. (FIG. 4) RAW24.7 cells were treated with 10 μM GPM1 for 24 h. Cell lysates were immunoprecipitated with control IgG or anti-gp96 antibody and the immunoprecipitated proteins were immunoblotted with anti-KDELR1, antiAIMP1 and gp96 antibodies. WCL means whole cell lysate. […] TNFα secreted from BMDCs was quantified by ELISA. […]

[2] = target: interaction of gp96 and AIMP1 (Mus musculus, UniProt P08113); assay: ELISA assay of gp96-AIMP1 interaction; assay type: binding, murine
Chain of interaction of gp96 and AIMP1 (P08113 22-802): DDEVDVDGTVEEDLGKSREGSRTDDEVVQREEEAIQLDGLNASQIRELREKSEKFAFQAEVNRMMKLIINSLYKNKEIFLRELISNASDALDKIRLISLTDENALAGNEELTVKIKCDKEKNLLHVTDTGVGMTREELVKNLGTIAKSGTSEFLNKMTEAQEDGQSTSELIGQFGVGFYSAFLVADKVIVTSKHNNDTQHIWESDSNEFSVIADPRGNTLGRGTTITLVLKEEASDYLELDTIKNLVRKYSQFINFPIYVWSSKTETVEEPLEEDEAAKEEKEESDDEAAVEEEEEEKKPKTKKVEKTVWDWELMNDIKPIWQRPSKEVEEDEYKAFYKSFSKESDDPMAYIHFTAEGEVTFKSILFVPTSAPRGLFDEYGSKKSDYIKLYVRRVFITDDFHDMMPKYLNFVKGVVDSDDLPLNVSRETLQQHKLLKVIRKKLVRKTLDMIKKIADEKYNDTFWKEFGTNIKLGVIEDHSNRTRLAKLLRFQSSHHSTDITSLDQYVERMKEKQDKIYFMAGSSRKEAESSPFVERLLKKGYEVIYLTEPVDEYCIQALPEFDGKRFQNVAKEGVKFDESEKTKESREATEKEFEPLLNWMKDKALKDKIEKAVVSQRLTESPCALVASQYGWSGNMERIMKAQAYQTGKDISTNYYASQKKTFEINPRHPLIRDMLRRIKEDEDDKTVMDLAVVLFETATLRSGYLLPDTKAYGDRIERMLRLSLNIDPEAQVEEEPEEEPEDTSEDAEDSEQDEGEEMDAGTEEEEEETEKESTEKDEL
Protocol: FIGS. 1 to 9 represent suppression of cell surface gp96 by GPM1 reduces DC maturation and B220^+ population in gp96tm transgenic mice. (FIG. 1) Chemical structure of GPM1 (Formula 2) and negative control (NC1, Formula 16) used in this study. (FIG. 2) The dose-dependent effect of GPM1 or NC1 on the AIMP1-gp96 interaction using ELISA method as described. The indicated concentrations of the two compounds and biotin-conjugated murine gp96 were added to AIMP1 coated on the surface of microtiter wells, and gp96 bound to AIMP1 was detected with strepavidin-conjugated peroxidase. (FIG. 3) The binding of GPM1 to gp96 was examined by surface plasmon resonance (SPR). GPM1 at the indicated concentrations was injected to immobilized gp96 and the binding was measured using Biacore 3000. The response data were processed using data from a reference surface and buffer injections. Each concentration was tested in triplicate. (FIG. 4) RAW24.7 cells were treated with 10 μM GPM1 for 24 h. Cell lysates were immunoprecipitated with control IgG or anti-gp96 antibody and the immunoprecipitated proteins were immunoblotted with anti-KDELR1, antiAIMP1 and gp96 antibodies. WCL means whole cell lysate. (FIG. 5) Splenocytes isolated from C57BL/6 mice were treated with vehicle (5% DMSO in PBS), GPM1, or NC1 (10 μM, 24 h), stained for cell surface gp96, and followed by flow cytometry. (FIG. 6) AIMP1^+/+ or AIMP1^−/− mouse splenocytes (2×10^5 cells) were treated with vehicle, GPM1, or NC1 (10 μM, 24 h), fixed, and then co-cultured with WT bone marrow-derived DCs (1×10^4 cells) for 16 h. TNFα secreted from BMDCs was quantified by ELISA. (FIG. 7) Percentage of gp96^+ MHC class II^+ cell population in splenocytes from gp96tm transgenic female mice treated with vehicle (control) (n=9), GPM1 (n=9), and dexamethasone (n=7) at 30 mg/kg. (FIG. 8) Cell surface ICOSL of CD11b^+CD11c^+ (myeloid DCs), CD11b^−CD11c^+ (lymphoid DCs), and CD11b^+CD11c^− (macrophages) cell populations in splenocytes from gp96tm transgenic female mice treated with vehicle (n=9) and GPM1 (n=9) at 30 mg/kg. (FIG. 9) Percentage of B220^+, MHC class II^+, CD4^+, CD8^+, CD4 and CD8 double negative cell populations in splenocytes from gp96tm transgenic female mice treated with vehicle (n=9), GPM1 (n=9), and dexamethasone (n=7) at 30 mg/kg. Student t-test P values comparing GPM1-treated mice with control are indicated.
96-well plates (Maxisorp., F96; Nunc) were coated with 500 ng/well AIMP1 in PBS (pH 7.4). After washing, the remaining sites were blocked with PBS containing 1% BSA for 1 h. Binding of 10 ng/well biotin-conjugated gp96 was performed in Tris buffer (25 mM Tris, 10 mM NaCl and 0.4% Triton X-100). Each of the 6,580 compounds was added to the well at 100 nM and the plates were washed and incubated with HRP conjugated streptavidin in PBS containing 0.1% BSA and 0.1% Tween 20 for 30 min. The plates were washed, and then substrate was added to each well. The absorbance was monitored at 450 nm.
To identify chemicals that can affect membrane translocation of gp96, the present inventors employed the interaction of gp96 with AIMP1 as the screening target. For this screening, the present inventors chose 6,482 chemicals with different pharmacophore representing 150,000 different chemicals deposited in Korea Chemical Bank and identified the compounds that can inhibit the interaction of the two proteins. For the screening, the present inventors set up a modified ELISA method using recombinant AIMP1 and gp96 proteins as described in Experimental methods. Each of the tested compounds gave different effect on the interaction of the two proteins (FIG. 19). And the present inventors have selected 12 compounds that inhibited the interaction more than 95% of the control at 0.1 μM (Table 1). The present inventors obtained 1251 additional compounds derived from these 12 initial hits and tested them again for their activities against the gp96-AIMP1 interaction.

[3] = target: gp96 (Homo sapiens, UniProt P14625); assay: ATPase activity of gp96 (ATPase assay kit); assay type: biochemical; conditions: 0 vs. 100 μM
Chain of gp96 (P14625 22-803): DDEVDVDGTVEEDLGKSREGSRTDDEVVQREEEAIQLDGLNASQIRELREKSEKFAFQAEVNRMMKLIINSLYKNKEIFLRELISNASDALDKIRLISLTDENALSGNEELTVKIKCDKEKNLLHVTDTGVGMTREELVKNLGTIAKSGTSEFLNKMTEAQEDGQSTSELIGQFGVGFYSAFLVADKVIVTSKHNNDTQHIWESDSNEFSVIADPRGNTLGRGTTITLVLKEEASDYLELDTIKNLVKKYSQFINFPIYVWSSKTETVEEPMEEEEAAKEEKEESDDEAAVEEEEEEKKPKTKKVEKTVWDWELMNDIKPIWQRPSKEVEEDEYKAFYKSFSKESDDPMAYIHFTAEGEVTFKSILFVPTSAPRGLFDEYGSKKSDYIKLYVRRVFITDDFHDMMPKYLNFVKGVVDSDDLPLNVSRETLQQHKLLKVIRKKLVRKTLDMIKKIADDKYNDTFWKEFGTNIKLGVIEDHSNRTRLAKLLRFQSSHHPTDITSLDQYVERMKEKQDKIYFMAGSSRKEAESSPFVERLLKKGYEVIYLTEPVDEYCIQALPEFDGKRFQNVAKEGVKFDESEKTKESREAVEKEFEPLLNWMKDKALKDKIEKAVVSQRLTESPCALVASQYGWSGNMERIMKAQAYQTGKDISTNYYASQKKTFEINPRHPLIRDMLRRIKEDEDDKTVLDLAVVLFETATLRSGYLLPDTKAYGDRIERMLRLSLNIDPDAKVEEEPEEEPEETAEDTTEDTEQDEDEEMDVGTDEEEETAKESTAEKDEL
Protocol: FIG. 22 represents the effect of point mutations on the ATPase activity of gp96. (a) The effect of gp96 point mutations on its ATPase activity was examined using ATPase assay kit (Innova Biosciences, Cambridge, UK). One unit is the amount of enzyme that catalyzes the reaction of 1 μmol of substrate per minute. The enzymatic activity was calculated according to manufacturer's instruction.
FIG. 23 represents the effect of GPM1 on the ATPase activity gp96. (a) The dose-dependent effect of GPM1 on the ATPase activity.

T1 sequence (P08113 22-802): as the sequence (P08113 22-802) above

Structure (SMILES): COC(=O)[C@@H](Oc1nc(OC)cc(OC)n1)C(C)C [GPM1, (S)-methyl 2-(4,6-dimethoxypyrimidin-2-yloxy)-3-methylbutanoate]
- interaction of gp96 with KDELR1 ([1]; RAW24.7 cells, co-immunoprecipitation): increased
- cellular levels of gp96, KDER1 and AIMP1 ([1]; whole cell lysate): did not affect
- IC50 ([2]; dose-dependent effect, ELISA, read-out: 50% inhibition of the interaction of gp96 and AIMP1): ~30 nM
- inhibition at 0.1 µM ([2]; read-out: Inhibition rate (at 100 nM; %)): 95%
- effect on the gp96 ATPase activity [3]: little effect; also recorded: did not affect
